Experimental data from patent US11028067B2, “Heteroarylsulfonyl-substituted pyridines and their use in the treatment of cancer” (Oblique Therapeutics AB, priority 2017, dated 2021).
pIC50: −log10 of the molar value.

Legend:
MDA-MB-231 cells = assay: Breast cancer cell viability assay (Alamar Blue); assay type: cell-based; settings: Homo sapiens, 72 hrs, 10% FBS media containing 25 nM selenite
Description: (§1) MDA-MB-231 cells were plated 2000 cells/well in 96-well black optical plates in the presence of 10% FBS media containing 25 nM selenite. The following day cells were treated with various concentrations of compounds (0.1% DMSO final) and incubated for 72 hrs. After the incubation Alamar Blue reagent was added to each well and incubated for additional 3 hrs. Fluorescence was read ex: 530 nm/em: 590 nm, and percent of viability was determined using DMSO vehicle and no cell (blank) controls.

FaDu cells = assay: Head and neck cancer cell viability assay (Cell-Quanti Blue); assay type: cell-based; settings: Homo sapiens, 72 hrs, 10% FBS media containing 25 nM selenite
Description: as §1, with “FaDu” for “MDA-MB-231”, “the compound of Example 1” for “compounds”, “Cell-Quanti” for “Alamar”

MDA-MB-468 = assay: Cancer cell viability assay (MTT), MDA-MB-468; assay type: cell-based; settings: 10% FBS media
Description: (§2) Breast cancer and glioblastoma cell lines were plated 4000 cells/well in 96-well plates in the presence of 10% FBS media. The following day cells were treated with various concentrations of example compounds (0.1% DMSO final) and incubated for 72 hrs. After the incubation An MTT assay was performed to access cell viability. Percent of viability was determined using DMSO vehicle and no cell (blank) controls.

[1] = target: gluthathione reductase (GR) (Homo sapiens (Human), UniProt P00390); assay: Inhibition of recombinant GR (GSSG assay); assay type: biochemical; settings: 2 nM GR, 250 μM NADPH, 15 minutes incubation, 1 mM GSSG
Chain of gluthathione reductase (GR) (P00390 44-522): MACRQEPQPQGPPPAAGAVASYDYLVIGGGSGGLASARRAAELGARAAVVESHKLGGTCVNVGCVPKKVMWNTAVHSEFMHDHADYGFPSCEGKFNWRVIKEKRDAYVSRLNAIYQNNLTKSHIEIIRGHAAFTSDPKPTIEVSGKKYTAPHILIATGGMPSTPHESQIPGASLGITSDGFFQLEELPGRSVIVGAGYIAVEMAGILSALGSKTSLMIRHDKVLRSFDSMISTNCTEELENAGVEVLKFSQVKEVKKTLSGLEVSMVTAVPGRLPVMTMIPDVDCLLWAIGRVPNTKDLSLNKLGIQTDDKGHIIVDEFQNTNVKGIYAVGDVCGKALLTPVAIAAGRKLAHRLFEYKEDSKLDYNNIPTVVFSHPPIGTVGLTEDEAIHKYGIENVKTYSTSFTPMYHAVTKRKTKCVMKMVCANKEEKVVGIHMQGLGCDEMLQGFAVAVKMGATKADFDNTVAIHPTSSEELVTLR
Description: (§3) Small molecule inhibition of recombinant thioredoxin reductase 1 (TrxR1) and gluthathione reductase (GR) was examined in 96-well plate format. 30 nM TrxR1 was incubated in the presence of 250 μM NADPH, 0.1 mg/ml BSA, and various concentrations of the compounds (1% DMSO final) in 50 mM Tris (pH 7.5) and 2 mM EDTA buffer for 15 minutes. Following the incubation period, 2 mM DTNB was added to each well and the change in O.D. at 412 nm was followed. Percent activity was determined using DMSO vehicle and no TrxR1 (blank) controls. 2 nM GR was incubated in the presence of 250 μM NADPH, 0.1 mg/ml BSA, and various concentrations of compounds (1% DMSO final) in 50 mM Tris (pH 7.5) and 2 mM EDTA buffer for 15 minutes. Following the incubation period, 1 mM GSSG was added to each well and the change in O.D. at 340 nm was followed. Percent activity was determined using DMSO vehicle and no GR (blank) controls.

U-87 MG = assay: Cancer cell viability assay (MTT), U-87 MG; assay type: cell-based; settings: 72 hrs, 10% FBS media
Description: as §2

MDA-MB-231 = assay: Cancer cell viability assay (MTT), MDA-MB-231; assay type: cell-based; settings: 10% FBS media
Description: as §2

[2] = target: recombinant thioredoxin reductase 1 (TrxR1) (Homo sapiens (Human), UniProt Q16881); assay: Inhibition of recombinant TrxR1 (DTNB assay); assay type: biochemical; settings: 30 nM TrxR1, 250 μM NADPH, 15 minutes incubation, 2 mM DTNB; read-out: TrxR inhibition
Chain of recombinant thioredoxin reductase 1 (TrxR1) (Q16881 151-649): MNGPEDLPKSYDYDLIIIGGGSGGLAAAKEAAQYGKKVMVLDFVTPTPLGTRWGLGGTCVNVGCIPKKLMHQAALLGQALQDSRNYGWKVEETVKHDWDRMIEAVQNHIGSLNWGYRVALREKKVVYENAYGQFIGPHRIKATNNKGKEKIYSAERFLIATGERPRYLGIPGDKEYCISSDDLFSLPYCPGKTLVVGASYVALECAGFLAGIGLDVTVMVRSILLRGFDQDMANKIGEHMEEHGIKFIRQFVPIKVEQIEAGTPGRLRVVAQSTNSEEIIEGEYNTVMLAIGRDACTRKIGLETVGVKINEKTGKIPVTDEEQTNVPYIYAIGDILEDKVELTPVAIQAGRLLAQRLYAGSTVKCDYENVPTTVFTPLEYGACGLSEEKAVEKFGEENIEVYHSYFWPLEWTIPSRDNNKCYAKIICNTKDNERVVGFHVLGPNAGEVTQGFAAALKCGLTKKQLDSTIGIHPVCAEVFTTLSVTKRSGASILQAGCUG
Description: as §3

Compound | pIC50 (MDA-MB-231 cells) | pIC50 (FaDu cells) | pIC50 (MDA-MB-468; Homo sapiens, MDA-MB-468, 72 hrs) | pIC50 [1] | pIC50 (U-87 MG; Homo sapiens, U-87 MG) | pIC50 (MDA-MB-231; Homo sapiens, MDA-MB-231, 72 hrs) | pIC50 [2] | pIC50 (MDA-MB-468; 72 hrs) | pIC50 (U-87 MG) | pIC50 (MDA-MB-231; 72 hrs)
COc1ccc([N+](=O)[O-])c(S(=O)(=O)c2ccccn2)n1 [Example 1, 6-Methoxy-3-nitro-2-(pyridin-2-ylsulfonyl)pyridine] | 5.44 | 5.79 | 5.36 | 4.19 | 5.09 | 5.53 | 7.57 |  |  | 
O=[N+]([O-])c1ccc(Cl)nc1S(=O)(=O)c1ccccn1 [Example 2, 6-Chloro-3-nitro-2-(pyridin-2-ylsulfonyl)pyridine] |  | 6.21 |  | 5.00 |  |  | 7.24 |  |  | 
COc1ccc([N+](=O)[O-])c(S(=O)(=O)c2ccncc2)n1 [Example 4, 6-methoxy-3-nitro-2-(pyridin-4-ylsulfonyl)pyridine] | < 4.00 |  |  | 4.95 |  |  | 9.07 |  |  | 
COc1ccc([N+](=O)[O-])c(S(=O)(=O)c2nc(C)cs2)n1 [Example 7, 2-((6-methoxy-3-nitropyridin-2-yl)sulfonyl)-4-methylthiazole] | 5.51 | 4.34 |  | < 4.00 |  |  | 8.16 |  |  | 
COc1ccc([N+](=O)[O-])c([S+]([O-])c2ccccn2)n1 (stereo not drawn) [Example 8, 6-Methoxy-3-nitro-2-(pyridin-2-ylsufinyl)-pyridine] |  |  |  |  |  |  | 8.26 | 6.02 | 5.60 | 5.99

More lines, in order of rising pIC50 [2], values ahead:

pIC50 (MDA-MB-231 cells) | pIC50 (FaDu cells) | pIC50 (MDA-MB-468; Homo sapiens, MDA-MB-468, 72 hrs) | pIC50 [1] | pIC50 (U-87 MG; Homo sapiens, U-87 MG) | pIC50 (MDA-MB-231; Homo sapiens, MDA-MB-231, 72 hrs) | pIC50 [2] | pIC50 (MDA-MB-468; 72 hrs) | pIC50 (U-87 MG) | pIC50 (MDA-MB-231; 72 hrs) | Compound
 | 5.54 |  | < 4.00 |  |  | 6.25 |  |  |  | CN(C)c1ccc([N+](=O)[O-])c(S(=O)(=O)c2ccccn2)n1 [Example 3, 6-Dimethylamino-3-nitro-2-(pyridin-2-ylsulfonyl)pyridine]
5.34 |  |  | < 4.00 |  |  | 7.97 |  |  |  | COc1ccc([N+](=O)[O-])c(S(=O)(=O)c2ncccn2)n1 [Example 5, 2-((6-methoxy-3-nitropyridin-2-yl)sulfonyl)pyrimidine]
4.96 |  |  | < 4.00 |  |  | 8.40 |  |  |  | COc1ccc([N+](=O)[O-])c(S(=O)(=O)c2ncc[nH]2)n1 [Example 6, 2-((1H-imidazol-2-yl)sulfonyl)-6-methoxy-3-nitropyridine]
